From ChEMBL document CHEMBL1201862, “PubChem BioAssay data set” (2004)
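Compound exposure: 48 hours, 5 concentrations, 96-well plates. The concentration for 50% growth inhibition is given as GI50.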 The source made the active and inactive calls. No stated cut-off is given here; in the data, active = GI50 up to about 1.1 µM and inactive = higher.

Key:
Test in all cases: NCI anticancer screen, dose series, 48 h
UACC-62 = system: UACC-62
HOP-92 = system: HOP-92
SNB-19 = system: SNB-19
786-0 = system: 786-0
SK-OV-3 = system: SK-OV-3
UO-31 = system: UO-31
RXF 393 = system: RXF 393
COLO 205 = system: COLO 205
EKVX = system: EKVX
OVCAR-3 = system: OVCAR-3
SK-MEL-28 = system: SK-MEL-28
HOP-62 = system: HOP-62
CCRF-CEM = system: CCRF-CEM
SNB-75 = system: SNB-75
ACHN = system: ACHN

Measured: GI50

COC(=O)/C(=C/c1ccc(OC)cc1)C(C(=O)O)=C(C)C
inactive: UACC-62 > 100 µM | HOP-92 > 100 µM | SNB-19 > 100 µM | 786-0 > 100 µM | SK-OV-3 > 100 µM | UO-31 > 100 µM | RXF 393 > 100 µM | COLO 205 > 100 µM | EKVX > 100 µM | OVCAR-3 > 100 µM | SK-MEL-28 > 100 µM | HOP-62 > 100 µM | CCRF-CEM > 100 µM

COC(=O)CSc1nnc(-c2ccccc2)[nH]1
inactive: UACC-62 > 100 µM | HOP-92 > 100 µM | SNB-19 > 100 µM | 786-0 > 100 µM | SK-OV-3 > 100 µM | UO-31 > 100 µM | SNB-75 40.5 µM | COLO 205 > 100 µM | ACHN > 100 µM | EKVX > 100 µM | OVCAR-3 > 100 µM | SK-MEL-28 > 100 µM | HOP-62 > 100 µM | CCRF-CEM > 100 µM

COC1CC(OS(=O)(=O)c2ccc([N+](=O)[O-])cc2)C(OC(=O)c2ccccc2)C(C)O1 (stereo not given)
inactive: UACC-62 > 100 µM | HOP-92 55.2 µM | SNB-19 > 100 µM | 786-0 32.2 µM | RXF 393 39.1 µM | COLO 205 > 100 µM | ACHN > 100 µM | OVCAR-3 > 100 µM | SK-MEL-28 > 100 µM | HOP-62 > 100 µM | CCRF-CEM > 100 µM

NCCn1ccc(NC(c2ccccc2)(c2ccccc2)c2ccccc2)nc1=O
inactive: HOP-92 13.4 µM | SNB-19 > 10 µM | 786-0 17.3 µM | UO-31 > 100 µM | SNB-75 16.7 µM | RXF 393 4.08 µM | COLO 205 29.8 µM | ACHN 54.7 µM | EKVX 21.3 µM | OVCAR-3 25.8 µM | SK-MEL-28 20.2 µM | HOP-62 30.1 µM

COc1ccc(C2NC3=C(CCCC3)N2)cc1
inactive: HOP-92 54.2 µM | 786-0 41.1 µM | SK-OV-3 42.6 µM | UO-31 77.6 µM | SNB-75 58.7 µM | COLO 205 34 µM | ACHN > 100 µM | OVCAR-3 71 µM | SK-MEL-28 > 100 µM | HOP-62 > 100 µM | CCRF-CEM > 100 µM

COC(=O)/C(=N/Nc1cccc(Cl)c1)C(C(=O)C(=O)Nc1cccc(Cl)c1C)c1nc2ccccc2nc1C (stereo not given)
inactive: UACC-62 24.6 µM | 786-0 > 100 µM | SK-OV-3 > 100 µM | UO-31 20.1 µM | RXF 393 > 100 µM | COLO 205 > 100 µM | ACHN 11.6 µM | EKVX > 100 µM | OVCAR-3 > 100 µM | SK-MEL-28 92.3 µM | HOP-62 38.3 µM | CCRF-CEM 62.5 µM

O/N=C\C(=N/O)Nc1ccc(Cc2ccc(NC(/C=N\O)=N/O)cc2)cc1
inactive: UACC-62 21.2 µM | HOP-92 25.8 µM | SNB-19 97.9 µM | 786-0 58.6 µM | SK-OV-3 33.2 µM | UO-31 13.2 µM | COLO 205 54.7 µM | ACHN 31.6 µM | EKVX 25.4 µM | OVCAR-3 42.3 µM | SK-MEL-28 > 100 µM | HOP-62 27.4 µM | CCRF-CEM 45.4 µM

O=C(CCc1cc(-c2ccccc2)nc(S)n1)N(Cc1ccccc1)Cc1ccccc1
inactive: UACC-62 > 100 µM | HOP-92 97.3 µM | SNB-19 > 100 µM | 786-0 > 100 µM | SK-OV-3 > 100 µM | UO-31 > 100 µM | COLO 205 > 100 µM | ACHN > 100 µM | EKVX > 100 µM | OVCAR-3 > 100 µM | HOP-62 > 100 µM | CCRF-CEM > 100 µM

NC(C(=O)O)c1ccc(C(=O)O)cc1 (stereo not given)
inactive: UACC-62 > 100 µM | SNB-19 > 100 µM | 786-0 > 100 µM | SK-OV-3 > 100 µM | UO-31 > 100 µM | SNB-75 > 100 µM | RXF 393 > 100 µM | COLO 205 > 100 µM | ACHN > 100 µM | EKVX > 100 µM | OVCAR-3 > 100 µM | SK-MEL-28 > 100 µM | HOP-62 > 100 µM | CCRF-CEM > 100 µM

COC(=O)C(CC(=O)Nc1ccc(Cl)c(Cl)c1)C(=O)C(=O)NC1C2CC3CC(C2)CC1C3 (stereo not given)
inactive: UACC-62 92.7 µM | HOP-92 > 100 µM | SNB-19 > 100 µM | 786-0 > 100 µM | SK-OV-3 > 100 µM | UO-31 > 100 µM | RXF 393 > 100 µM | COLO 205 > 100 µM | ACHN > 100 µM | EKVX 54.6 µM | OVCAR-3 > 100 µM | SK-MEL-28 > 100 µM | HOP-62 > 100 µM | CCRF-CEM > 100 µM

O=C1C(=O)N(c2ccc(Cl)cc2)C(=O)/C(=N/c2cccc3c(=O)[nH][nH]c(=O)c23)C1c1nc2ccccc2o1 (stereo not given)
inactive: UACC-62 > 100 µM | HOP-92 84.9 µM | SNB-19 84.9 µM | 786-0 > 100 µM | SK-OV-3 > 100 µM | UO-31 > 100 µM | SNB-75 > 100 µM | COLO 205 > 100 µM | ACHN > 100 µM | EKVX > 100 µM | OVCAR-3 > 100 µM | SK-MEL-28 > 100 µM | HOP-62 > 100 µM | CCRF-CEM > 100 µM
